Data published in patent US9393250B2, “Phthalocyanine compounds useful as RecA inhibitors and methods of using same” (University of Saskatchewan, priority 2012, dated 2016).

Tests used:
[1] = system: E. coli strain ATCC25922; assay: Antibiotic sensitivity assay (CFUs/ml), E. coli; assay type: cell-based, Escherichia coli
Procedure: (§1) Bacterial cultures were diluted to 10^5 cells/mL in LB broth (ATCC25922) or MH broth (ATCC27853, ATCC29212, ATCC29213). Antibiotics and/or phthalocyanines were added at indicated concentrations and the culture was incubated at 37° C. Samples were collected at 0, 24, 48, and 72 hours and plated on LB agar (ATCC25922) or tryptic soy blood agar (ATCC27853, ATCC29212, ATCC29213) to determine CFUs/ml.
The ability of 4,4-Fe-PcTs and 3,4-Cu-PcTs to potentiate the activity of ciprofloxacin (abbreviated “CFX”) was tested. Ciprofloxacin inhibits DNA gyrase in bacteria, causing accumulation of double-stranded DNA breaks (DSBs) and inducing the SOS response. The inventors characterized the ability of 4,4-Fe-PcTs and 3,4-Cu-PcTs to potentiate the activity of ciprofloxacin in the pathogenic E. coli strain ATCC25922, which was used previously by Cirz et al. to evaluate the role of SOS response proteins in antibiotic resistance.

[2] = system: ATCC25922 E. coli; assay: Ciprofloxacin resistance assay and reconstruction assay (in vitro mutagenesis); assay type: cell-based, Escherichia coli
Procedure: An in vitro mutagenesis assay [1] was used to measure the ability of 4,4-Fe-PcTs to block the acquisition of ciprofloxacin-induced resistance in ATCC25922 E. coli. ATCC25922 cells were plated on media containing ciprofloxacin in the presence or absence of 4,4-Fe-PcTs and cultured for 10 days. Colonies that appeared early in the assay (days 1 and 2) are believed to arise from pre-existing ciprofloxacin resistance mutations [1]. Colonies that appear later in the incubation (days 3 to 8) are due to ciprofloxacin resistance mutations acquired during exposure to ciprofloxacin or pre-existing mutations with a slow growth phenotype [1].
To distinguish between these two types of mutants, a reconstruction assay that tests for the time it takes for colonies to appear in the presence of ciprofloxacin was used. Colonies that appear at least two days faster than they appeared in the original ciprofloxacin mutagenesis screen were classified as colonies that acquire resistance after exposure to ciprofloxacin [1]. Colonies that appeared in the same number of days as in the ciprofloxacin resistance assay were classified as colonies with pre-existing mutations [1].
Twenty-five independent colonies of ATCC2592 were used to inoculate 25 LB broth cultures that were incubated at 37° C. for 25 hours. Viable cell counts in these cultures were determined by plating serial dilutions onto LB agar plates. One hundred microliters from each culture (˜10^8 cells) were plated in duplicate on LB agar containing ciprofloxacin (CFX) (40 nM) or ciprofloxacin (40 nM) and 4,4-Fe-PcTs (25 μM) (CFX+4,4-Fe-PcTs). Three additional 100 μL aliquots from three cultures were also plated on the same media to determine the number of viable cells per day. At 24 hour intervals, visible colonies were counted, removed from the plate, and stored at −80° C. for later use in the reconstruction assay and sequencing. Every 24 hours, in parallel with the resistance assay, small plugs of agar between visible colonies were excised from resistance assay plates. Agar plugs were homogenized in M9 buffer. Dilutions were plated in duplicate on LB plates to determine the total number of viable cells per day. The cells were also plated on LB containing CFX (40 nM) to determine if any CFX-resistant colonies remained after excision [1].
Reconstruction assays were used to determine whether ciprofloxacin resistant colonies were due to post-exposure mutation or due to mutation prior to ciprofloxacin exposure. Ciprofloxacin resistant clones isolated from the resistance assay were grown to saturation in LB media in 96 well plates. Cultures were then replica-plated in duplicate using a 96-pin replicator on LB plates to confirm viability and LB plates containing ciprofloxacin (40 nM) to confirm ciprofloxacin resistance. Ciprofloxacin-resistant clones that were isolated in the presence 4,4-Fe-PcTs were replica plated on LB and LB containing 4,4-Fe-PcTs (25 μM) and ciprofloxacin (40 nM). Clones that were resistant before ciprofloxacin exposure were defined as clones that formed colonies on the ciprofloxacin-containing media in the same number of days in the reconstruction assay as in the original resistance assay. Clones that mutated after exposure to ciprofloxacin were defined as clones that formed colonies earlier than in the original resistance assay [1].
The rate of ciprofloxacin resistance was defined as the number of ciprofloxacin-resistant mutants per viable cell that evolve as a function of time. […]

[3] = target: T1, EcRecA (Escherichia coli, UniProt P0A7G6); conditions: compound 10 μM; poly-(dT)36-stimulated; relative to reaction without inhibitor
Procedure: An ATPase assay [18] was used to screen a set of commercially available anionic, aromatic molecules for inhibitors of RecA ATPase activity. The release of inorganic phosphate by ATP hydrolysis was monitored using a Malachite Green phosphate assay [18]. The ssDNA-dependent ATPase reaction contained 1 μM EcRecA, 6 μM ssDNA (poly-(dT)36, concentration in nucleotides), 5 mM ATP, 50 mM Tris-Hepes buffer at pH 7.4, 10 mM MgCl2, 0.1% v/v 2-mercaptoethanol, and indicated amounts of 4,4-Fe-PcTs or 3,4-Cu-PcTs. Phosphate levels were measured by transferring 25 μl of ATPase reaction to 475 μl of malachite green phosphate assay, which contained 0.033% w/v Malachite Green, 1.3% w/v ammonium molybdate. 1.0 M HCl was used to monitor the release of inorganic phosphate by ATP hydrolysis [18]. The green complex formed between Malachite Green, molybdate, and free orthophosphate was measured by recording the absorbance at 620 nm.
Results are the average of two independent experiments where the deviation was less than 10%.

[4] = system: Enterococcus faecalis ATCC29212; assay: Antibiotic sensitivity assay (CFUs/ml), E. faecalis; assay type: cell-based; conditions: compound 25 μM; ciprofloxacin 6.5 μM
Procedure: as §1
To confirm that the activity of 4,4-Fe-PcTs was not specific to the gram-negative ATCC25922 E. coli, the ability of 4,4-Fe-PcTs to potentiate the activity of ciprofloxacin in another gram-negative (Pseudomonas aeruginosa ATCC27853) strain and two gram-positive (Staphylococcus aureus ATCC29213 and Enterococcus faecalis ATCC29212) strains was evaluated.

[5] = system: ATCC29522 cells; assay: Biofilm formation assay (crystal violet); assay type: cell-based, Escherichia coli; conditions: Fe-PcTs 25 μM; ciprofloxacin 40 nM; plastic surface, 96-well plate
Procedure: Biofilm formation on a plastic surface was analyzed using a 96-well plate (Falcon) as described previously. ATCC29522 cells were diluted in LB broth to 1×10^5 CFUs/ml. A 100 μl aliquot of cells was added to each well in the plate. Ciprofloxacin (CFX) was then added at a final concentration of 40 nM to each well and plates were incubated at 37° C. for 20 hours. Wells were aspirated and washed three times with 150 μl of PBS. Wells were stained with 120 μl of 0.1% crystal violet (Fisher) for 20 minutes. The crystal violet stain was aspirated and wells were washed three times with 150 μl of PBS. The plate was air-dried and the dye bound to adherent cells was resolubilized with 150 μl of 30% (v/v) glacial acetic acid (Fisher). The plate was incubated at room temperature for 20 minutes with shaking. The biofilm formation was quantified by measuring the OD600 nm using a plate reader.

[6] = system: ATCC25922 cells; assay: Neutropenic murine bacterial thigh infection model; assay type: in vivo, Escherichia coli
Procedure: Six-eight week-old, specific-pathogen-free, female CD-1 mice (weight, 25-35 g) were rendered neutropenic by intraperitoneal injection with 150 mg/kg cylcophosphamide (Sigma) four days before infection and 100 mg/kg cyclophosphamide 24 hours before infection. LB broth cultures inoculated from fresh ATCC25922 colonies and cells were grown to the log phase (OD600 of approximately 0.3) and diluted 1:1000 in LB broth. Thigh infections were produced by injecting 50 μl (approximately 10^6 CFUs) of diluted cultures into halothane-anesthetized mice. One group of mice was administrated inteperitoneal injection of 4,4-Fe-PcTs in conjunction with the second dose of cyclophosphamide (24 hours prior infection) (4,4-Fe-PcTs (pre)+CFX). Starting two hours after infection (defined as time zero), mice were administered subcutaneous injections of either 1 mg/kg ciprofloxacin alone (CFX) or co-treatment of 1 mg/kg ciprofloxacin with interperitoneal injection of 10 mg/kg 4,4-Fe-PcTs (4,4-Fe-PcTs+CFX and 4,4-Fe-PcTs (pre)+CFX) every 24 hours for 3 days. After 48 and 72 hours, three mice from each group were sacrificed, and their thighs removed and homogenized to determine the number of viable bacterial cells for both ciprofloxacin-sensitive and ciprofloxacin-resistant ATCC25922 cells. Serial dilutions of homogenates of the infected thigh were plated on LB agar (CFX Sensitive) and LB agar plates containing ciprofloxacin (40 nM) (CFX Resistant) to count viable cells for each of the three treatment groups.

[7] = target: T1, EcRecA; conditions: gel shift; 0, 10, 100 μM
Procedure: EcRecA (4 μM), a 1.0-kb double-stranded DNA (dsDNA) PCR product (12 μM in base pairs), and indicated concentrations of 4,4-Fe-PcTs or 3,4-Cu-PcTs were incubated in binding buffer (5 mM MgAc2, 50 mM Tris-Hepes at pH 7.6) for 10 minutes at 37° C. EcRecA bound (slower migrating) and unbound dsDNA were resolved using a 1.0% agarose gel. The gel was stained with ethidium bromide and the fluorescence emission in the gel was recorded using a Kodak GelLogic 200 system.

[8] = target: T1, EcRecA; conditions: gel shift; 0, 10, 100 μM; remark: listed apart in the source
[9] = target: EcRecA / EcLexA (Escherichia coli, UniProt P0A7G6); conditions: in presence of ATPγS
Procedure: The LexA cleavage reaction (10 μl) contained 1 μM poly-(dT)45, 2 μM EcRecA, 10 μM EcLexA, 0.1 mM ATP-γ-S, 20 mM MgAc2, 50 mM Hepes-Tris at pH 7.6 and indicated concentrations of 4,4-Fe-PcTs or 3,4-Cu-PcTs. The reaction was incubated for 120 minutes at 21° C. and stopped by the addition of 5 μl of loading buffer (30% glycerol, 10% SDS, 0.2 M Tris-HCl at pH 6.8, 0.1% v/v 2-mercaptoethanol and 0.1% w/v bromophenol blue). The products were resolved using a 13% SDS-polyacrylamide gel. The proteins were stained with Coomassie Blue-R250.

T1 sequence (P0A7G6 whole entry): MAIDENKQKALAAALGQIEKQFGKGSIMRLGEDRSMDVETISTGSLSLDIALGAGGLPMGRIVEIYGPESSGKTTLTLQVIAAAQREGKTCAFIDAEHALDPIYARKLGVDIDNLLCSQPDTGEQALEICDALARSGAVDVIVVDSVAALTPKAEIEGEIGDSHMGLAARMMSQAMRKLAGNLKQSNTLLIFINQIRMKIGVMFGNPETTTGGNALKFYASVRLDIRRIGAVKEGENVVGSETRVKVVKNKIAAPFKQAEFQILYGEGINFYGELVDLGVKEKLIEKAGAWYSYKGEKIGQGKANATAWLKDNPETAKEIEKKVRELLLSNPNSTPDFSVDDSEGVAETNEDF
EcRecA / EcLexA, sequence (P0A7G6 whole entry): as above

iron (III) phthalocyanine-4,4′,4″,4′″-tetrasulfonic acid [4,4-Fe-PcTs]
CFUs on co-treatment with ampicillin ([1]; 4,4-Fe-PcTs 25 μM + AMP 40 μM, after 24 hours): eliminating all CFUs
effect on activity of chloramphenicol (bacteriostatic) ([1]; 4,4-Fe-PcTs 25 μM + CAM 46 μM): very slight effect
CFUs on co-treatment with ciprofloxacin ([1]; 4,4-Fe-PcTs 25 μM + CFX 40 nM, after 24 hours): eliminating all CFUs
CFUs on co-treatment with kanamycin ([1]; 4,4-Fe-PcTs 25 μM + KAN 43 μM, after 24 hours): eliminating all CFUs
effect on activity of spectinomycin (bacteriostatic) ([1]; 4,4-Fe-PcTs 25 μM + SPECT 808 μM): very slight effect
effect on activity of tetracycline (bacteriostatic) ([1]; 4,4-Fe-PcTs 25 μM + TET 21 μM): very slight effect
potentiation of ciprofloxacin activity ([1]; ciprofloxacin 40 nM): potentiated the activity of ciprofloxacin
colony forming units (CFUs) ([1]; co-treated with ciprofloxacin 40 nM and compound at concentrations above 25 μM): no colony forming units (CFUs) were observed
total number of viable and ciprofloxacin-resistant cells relative to ciprofloxacin alone ([2]; 4,4-Fe-PcTs 25 μM + ciprofloxacin 40 nM): reduced
ciprofloxacin resistant mutants over time ([2]; cells treated with Fe-PcTs and ciprofloxacin): no ciprofloxacin resistant mutants were observed after day 4
ciprofloxacin-resistant colonies caused by pre-existing mutations ([2]; ciprofloxacin (40 nM) and 4,4-Fe-PcTs (25 μM)): 60%
inhibition of EcRecA ATPase activity [3]: high degree of inhibition
potentiation of ciprofloxacin activity [4]: potentiated the activity of ciprofloxacin
effect on ciprofloxacin-induced biofilm formation [5]: reduced the ability of ciprofloxacin to induce
potentiation of ciprofloxacin by pretreatment versus co-treatment only ([6]; 4,4-Fe-PcTs given 24 hours prior to infection plus co-treatment): potentiated the activity of ciprofloxacin more
ciprofloxacin-resistant cells in thigh ([6]; mice co-treated with ciprofloxacin 1 mg/kg and 4,4-Fe-PcTs 10 mg/kg i.p. (with or without pretreatment)): no ciprofloxacin resistant cells were observed
inhibition of RecA dsDNA-binding activity [7]: in the micromolar range
inhibition of RecA ssDNA-binding activity [8]: in the micromolar range
inhibition of LexA cleavage [9]: inhibited
